Where no end group is shown, it is not given here.

The first experiment deals with HLA-A*02:01 (Homo sapiens, UniProt P04439, D140Y/D185E/D98H/E176V/E277Q/G131W/G231S/I119V/I121R/I166T/I218V/L300P/L318F/N151K/N90K/P208A/P217A/Q86G/Q94H/R138H/R169H/T345S). As to the kind of experiment: biochemical. Format: binding.
As to SMVNGVVKL [Peptide 14605], binding was characterised by a dissociation constant (Kd) of 25 nM. For the sequence KMDIGVPLL [Peptide 14598], binding was put at a Kd of 1 nM. The sequence PLNEGIMAV [Peptide 14600] gave a Kd of 48 nM. The sequence ILTDGPERV [Peptide 14602] yielded a Kd of 4 nM. LLLTLLATV [Peptide 14597] displayed a Kd of 43 nM.

Take TLYAVATTV [Peptide 14606]: binding was put at a Kd of 1 nM. VLNPYMPTV [Peptide 14604] came in with a dissociation constant (Kd) of 1 nM. YMPSVVETL [Peptide 14607]: binding was put at a Kd of 1 nM.

SMVNGVVRL [Peptide 14599] showed a Kd of 2 nM.

A further experiment addresses HLA-A*24:03 (Homo sapiens, UniProt P04439, D101N/D140Y/D185E/E176V/F33S/G103R/G107R/I119L/I121M/I306V/K335N/L105A/L180Q/L300P/N151K/N90K/Q86E/Q94H/R106L/R138H/R89G/T104I/T345S/V100E/Y123F). Nature of the experiment: biochemical. Type of experiment: binding.
The sequence TYGWNIVKL [Peptide 14623] showed a Kd of 76 nM.

MALVAFLRF [Peptide 14610]: the Kd was determined as 13 nM. WYMWLGARF [Peptide 14613] came in with a Kd of 19 nM. The same measure, in the same setting: the figure for WYGMEIRPL [Peptide 14612] is 119 nM. The same measure, in the same setting: in the case of GFMNEDHWF [Peptide 14622] it was 17 nM. Still for that read-out and setting: the figure for GFLNEDHWF [Peptide 14615] is 34 nM.

As a reminder, the Kd is the concentration at which binding is half-saturated. Read a high Kd as weaker binding.
